Experimental data reported in paper PMC12120022, “Discovery and chemical optimisation of a potent, Bi-cyclic antimicrobial inhibitor of Escherichia coli PBP3” (Communications Biology, 2025).
Where a SMILES comes first, the peptide text is derived from it.

Biological target: T1, EcPBP3 (Escherichia coli, UniProt P0AD68)
T1 construct: For assays, selections and SPR a construct with residues 60–588 which has the N-terminal domain, but not the transmembrane helix, was used; made in house
Assay: Fluorescence polarisation competition assay with BOCILLIN-FL as tracer
Assay type: binding
Details: competition format, NB, non-binder (100 μM top concentration); for IC50: read-out: IC50 (nM) by fluorescence polarisation with Bocillin FL as tracer, Geometric mean (Lower 95% CI of geo. Mean; Upper 95% CI of geo. Mean, n=number of values)
Protocol: Binding of output peptides to EcPBP3 was evaluated using a fluorescence polarisation (FP) assay.
[…] 10 µL of protein (9.4 nM) was mixed with either 5 µL of peptide or 5 µL of buffer and then the assay was initiated by the addition of 10 µL of tracer (1 nM) (final volume 25 µL), in a black 384 low bind, low volume plate (Corning). The buffer was 10 mM HEPES (Sigma), 2% (v/v) glycerol (Sigma), 300 mM NaCl (Sigma), adjusted to pH 8. The plate was incubated for 1 h at 25 °C and then read in a PHERAstar FS (BMG) using with an “FP 485 520 520” optic module (excitation 485 nm, emission 520 nm). The gain was determined immediately prior to the read on a tracer-only well.
Dotmatics (Dotmatics) workflows performing the above calculations were used to process the data. Values quoted are the geometric means of at least 2 repeats.

T1 sequence (P0AD68 60-588): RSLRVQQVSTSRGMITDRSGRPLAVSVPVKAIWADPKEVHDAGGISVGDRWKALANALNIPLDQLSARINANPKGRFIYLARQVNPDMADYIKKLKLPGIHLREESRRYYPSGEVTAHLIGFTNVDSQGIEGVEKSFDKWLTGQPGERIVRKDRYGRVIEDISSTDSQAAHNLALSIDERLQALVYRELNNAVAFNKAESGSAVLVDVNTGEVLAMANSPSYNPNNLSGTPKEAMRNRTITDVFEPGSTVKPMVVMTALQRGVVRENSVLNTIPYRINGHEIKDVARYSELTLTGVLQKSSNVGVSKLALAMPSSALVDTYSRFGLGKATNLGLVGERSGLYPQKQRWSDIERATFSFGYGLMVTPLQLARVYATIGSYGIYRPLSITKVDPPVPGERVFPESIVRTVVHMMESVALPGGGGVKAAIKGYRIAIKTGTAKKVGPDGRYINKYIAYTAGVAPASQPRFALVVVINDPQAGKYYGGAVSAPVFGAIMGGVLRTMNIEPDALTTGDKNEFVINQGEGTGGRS

SMILES	IC50 (nM) by fluorescence polarisation with Bocillin FL as tracer, Geometric mean (Lower 95% CI of geo. Mean; Upper 95% CI of geo. Mean, n=number of values)	IC50 [nM]
CC(C)C[C@@H]1NC(=O)[C@@H](NC(=O)[C@H](C)N)CSCCC(=O)N2CN3CN(C2)C(=O)CCSC[C@H](NC(=O)[C@H](CC(N)=O)NC(=O)[C@H](CCC(=O)O)NC1=O)C(=O)N[C@@H](Cc1ccc(O)cc1)C(=O)N[C@@H](Cc1ccc(O)cc1)C(=O)N[C@@H](C(C)C)C(=O)N1CCC[C@H]1C(=O)N[C@@H](Cc1ccc(O)cc1)C(=O)N[C@@H](Cc1ccc(O)cc1)C(=O)NCC(=O)N[C@@H](Cc1ccc(O)cc1)C(=O)N[C@@H](C)C(=O)N[C@H](C(=O)N[C@@H](C)C(N)=O)CSCCC3=O [Peptide 13] (HELM PEPTIDE1{A.C.L.E.N.C.Y.Y.V.P.Y.Y.G.Y.A.C.A.[am]}|CHEM1{[O=C(CC[*:1])N1CN(C(=O)CC[*:2])CN(C(=O)CC[*:3])C1]}$PEPTIDE1,CHEM1,2:R3-1:R1|PEPTIDE1,CHEM1,6:R3-1:R2|PEPTIDE1,CHEM1,16:R3-1:R3$$$V2.0)	showed binding to EcPBP3	3800
CC(C)C[C@@H]1NC(=O)[C@@H]2CCCN2C(=O)[C@H](Cc2ccc(O)cc2)NC(=O)[C@H](C(C)C)NC(=O)[C@H](C(C)C)NC(=O)[C@H](CCC(=O)O)NC(=O)[C@@H](NC(=O)[C@H](C)N)CSCCC(=O)N2CN3CN(C2)C(=O)CCSC[C@H](NC1=O)C(=O)N[C@@H](Cc1ccc(O)cc1)C(=O)N[C@@H](Cc1c[nH]c2ccccc12)C(=O)N[C@@H](CO)C(=O)N[C@@H](CC(=O)O)C(=O)N[C@H](C(=O)N[C@@H](C)C(N)=O)CSCCC3=O [Peptide 8] (HELM PEPTIDE1{A.C.E.V.V.Y.P.L.C.Y.W.S.D.C.A.[am]}|CHEM1{[O=C(CC[*:1])N1CN(C(=O)CC[*:2])CN(C(=O)CC[*:3])C1]}$PEPTIDE1,CHEM1,2:R3-1:R1|PEPTIDE1,CHEM1,9:R3-1:R2|PEPTIDE1,CHEM1,14:R3-1:R3$$$V2.0)		> 100000
CC(C)C[C@@H]1NC(=O)[C@H](Cc2ccccc2)NC(=O)[C@H](CCC(=O)O)NC(=O)[C@H]([C@@H](C)O)NC(=O)[C@H](C)NC(=O)[C@@H](NC(=O)[C@H](C)N)CSCCC(=O)N2CN3CN(C2)C(=O)CCSC[C@H](NC(=O)[C@H](CC(C)C)NC(=O)[C@@H]2CCCN2C(=O)[C@H](Cc2ccc(O)cc2)NC1=O)C(=O)N[C@@H](Cc1c[nH]c2ccccc12)C(=O)N[C@@H](Cc1c[nH]c2ccccc12)C(=O)N[C@@H](CC(=O)O)C(=O)N[C@@H](CC(N)=O)C(=O)N[C@H](C(=O)N[C@@H](C)C(N)=O)CSCCC3=O [Peptide 7] (HELM PEPTIDE1{A.C.A.T.E.F.L.Y.P.L.C.W.W.D.N.C.A.[am]}|CHEM1{[O=C(CC[*:1])N1CN(C(=O)CC[*:2])CN(C(=O)CC[*:3])C1]}$PEPTIDE1,CHEM1,2:R3-1:R1|PEPTIDE1,CHEM1,11:R3-1:R2|PEPTIDE1,CHEM1,16:R3-1:R3$$$V2.0)		> 100000
CC(C)C[C@@H]1NC(=O)[C@H](C)NC(=O)[C@@H]2CSCCC(=O)N3CN(CN(C3)C(=O)CCSC[C@H](NC(=O)[C@H](C)N)C(=O)N3CCC[C@H]3C(=O)N[C@@H](CCC(=O)O)C(=O)N[C@@H](CCCNC(=N)N)C(=O)N[C@@H](CC(C)C)C(=O)N2)C(=O)CCSC[C@@H](C(=O)N[C@@H](C)C(N)=O)NC(=O)[C@H](CCCNC(=N)N)NC(=O)[C@H](CC(C)C)NC(=O)[C@H]([C@@H](C)O)NC(=O)[C@@H]2CCCN2C(=O)[C@H](CC(C)C)NC(=O)CNC1=O [Peptide 12] (HELM PEPTIDE1{A.C.P.E.R.L.C.A.L.G.L.P.T.L.R.C.A.[am]}|CHEM1{[O=C(CC[*:1])N1CN(C(=O)CC[*:2])CN(C(=O)CC[*:3])C1]}$PEPTIDE1,CHEM1,2:R3-1:R1|PEPTIDE1,CHEM1,7:R3-1:R2|PEPTIDE1,CHEM1,16:R3-1:R3$$$V2.0)		> 100000
